Assay results as given in patent US12673945B2, “3-((8-((1H-pyrazol-4-yl)amino)imidazo[1,2-a]pyridin-3-yl)ethinyl)-n-phenylbenzamide derivative, method for preparing same, and pharmaceutical composition containing same as active ingredient for prevention or treatment of cancer” (DAEGU-GYEONGBUK MEDICAL INNOVATION FOUNDATION, priority 2020, dated 2026).

Assays:
Type in all cases: cell-based
TCCS cells = assay: human CML cell proliferation inhibition; conditions: 72 hours, Cell Counting Kit-8
Procedure, shortened: (§1)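 Bcr-Abl TCCS and KOPM28 cells, plus their T315I-Bcr-Abl counterparts, are treated with compound (final 0–10 μM, 5-fold steps) for 72 h at 37 °C. Viability is measured by CCK-8 at 450 nm, and GI50 is computed as percent of DMSO control.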

KOPM28 cells = assay: human CML cell proliferation inhibition; conditions: 72 hours, Cell Counting Kit-8
Procedure, shortened: as §1

T315I-KOPM28 cells = assay: human CML cell proliferation inhibition; conditions: 72 hours, Cell Counting Kit-8
Procedure, shortened: as §1

T315I-TCCS cells = assay: human CML cell proliferation inhibition; conditions: 72 hours, Cell Counting Kit-8
Procedure, shortened: as §1

T315I-Bcr-Abl (Ba/F3) = assay: Ba/F3 cell proliferation inhibition; conditions: BaF3; 72 hours, Cell Counting Kit-8
Procedure, shortened: (§2)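 GI50 derived from CCK-8 absorbance at 450 nm (2 h development), expressed relative to DMSO vehicle. Cells (parental or T315I-Bcr-Abl Ba/F3, 1×10^4/well) received nine threefold-diluted concentrations, final 0 to 10 μM, for 72 h at 37 °C.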

Parental (Ba/F3) = assay: Ba/F3 cell proliferation inhibition; conditions: BaF3; 72 hours, Cell Counting Kit-8
Procedure, shortened: as §2

With Cc1cc(F)c(C(=O)Nc2ccc(CN3CCN(C)CC3)c(C(F)(F)F)c2)cc1C#Cc1cnc2c(Nc3cnn(C)c3)cccn12 [Example 55, 2-fluoro-4-methyl-5-((8-((1-methyl-1H-pyrazol-4-yl)amino)imidazo[1,2-a]pyridin-3-yl)ethynyl)-N-(4-((4-methylpiperazin-1-yl)methyl)-3-(trifluoromethyl)phenyl)benzamide] the GI50 (TCCS cells) was < 10 nM, the GI50 (KOPM28 cells) was < 10 nM and the GI50 (T315I-KOPM28 cells) was < 10 nM. For the same compound, the GI50 (T315I-TCCS cells) was < 10 nM, the GI50 (T315I-Bcr-Abl (Ba/F3)) was < 50 nM and the GI50 (Parental (Ba/F3)) was 500 to 5000 nM.

In the case of Cc1cc(F)c(C(=O)Nc2cc(-c3cnn(C)c3)cc(C(C)(C)C#N)c2)cc1C#Cc1cnc2c(Nc3cnn(C)c3)cccn12 [Example 19, N-(3-(2-cyanopropan-2-yl)-5-(1-methyl-1H-pyrazol-4-yl)phenyl)-2-fluoro-4-methyl-5-((8-((1-methyl-1H-pyrazol-4-yl)amino)imidazo[1,2-a]pyridin-3-yl)ethynyl)benzamide], the GI50 (TCCS cells) is reported as < 10 nM, the GI50 (KOPM28 cells) is reported as < 10 nM and the GI50 (T315I-KOPM28 cells) is reported as > 100 nM. The GI50 (T315I-TCCS cells) was 100 nM, the GI50 (T315I-Bcr-Abl (Ba/F3)) was 50 to 500 nM and the GI50 (Parental (Ba/F3)) was > 5000 nM.

Cc1cc(F)c(C(=O)Nc2cc(CN3CCC(N(C)C)C3)cc(C(C)(C)C#N)c2)cc1C#Cc1cnc2c(Nc3cnn(C)c3)cccn12 (stereo not drawn) [Example 29, N-(3-(2-cyanopropan-2-yl)-5-((3-(dimethylamino)pyrrolidin-1-yl)methyl)phenyl)-2-fluoro-4-methyl-5-((8-((1-methyl-1H-pyrazol-4-yl)amino)imidazo[1,2-a]pyridin-3-yl)ethynyl)benzamide] was tested, and the GI50 (TCCS cells) was < 10 nM, the GI50 (KOPM28 cells) was < 10 nM and the GI50 (T315I-KOPM28 cells) was 100 nM. For the same compound, the GI50 (T315I-TCCS cells) was 100 nM, the GI50 (T315I-Bcr-Abl (Ba/F3)) was 50 to 500 nM and the GI50 (Parental (Ba/F3)) was 500 to 5000 nM.

For Cc1cc(F)c(C(=O)Nc2ccc(CN3CCCN(C)CC3)c(C(F)(F)F)c2)cc1C#Cc1cnc2c(Nc3cnn(C)c3)cccn12 [Example 61, 2-fluoro-4-methyl-N-(4-((4-methyl-1,4-diazepan-1-yl)methyl)-3-(trifluoromethyl)phenyl)-5-((8-((1-methyl-1H-pyrazol-4-yl)amino)imidazo[1,2-a]pyridin-3-yl)ethynyl)benzamide], the GI50 (TCCS cells) was < 10 nM, the GI50 (KOPM28 cells) was < 10 nM and the GI50 (T315I-KOPM28 cells) was < 10 nM. For the same compound, the GI50 (T315I-TCCS cells) was 100 nM, the GI50 (T315I-Bcr-Abl (Ba/F3)) was < 50 nM and the GI50 (Parental (Ba/F3)) was 500 to 5000 nM.

For Cc1cc(F)c(C(=O)Nc2cc(CN3CCN(C)C(=O)C3)cc(C(F)(F)F)c2)cc1C#Cc1cnc2c(Nc3cn[nH]c3)cccn12 [Example 107, 5-((8-((1H-pyrazol-4-yl)amino)imidazo[1,2-a]pyridin-3-yl)ethynyl)-2-fluoro-4-methyl-N-(3-((4-methyl-3-oxopiperazin-1-yl)methyl)-5-(trifluoromethyl)phenyl)benzamide], the GI50 (TCCS cells) was < 10 nM, the GI50 (KOPM28 cells) was < 10 nM and the GI50 (T315I-KOPM28 cells) was > 100 nM. For the same compound, the GI50 (T315I-TCCS cells) was 100 nM, the GI50 (T315I-Bcr-Abl (Ba/F3)) was 50 to 500 nM and the GI50 (Parental (Ba/F3)) was 500 to 5000 nM.

In the case of Cc1cc(F)c(C(=O)Nc2ccc(CN3CCN(S(C)(=O)=O)CC3)c(C(F)(F)F)c2)cc1C#Cc1cnc2c(Nc3cn[nH]c3)cccn12 [Example 113, 5-((8-((1H-pyrazol-4-yl)amino)imidazo[1,2-a]pyridin-3-yl)ethynyl)-2-fluoro-4-methyl-N-(4-((4-(methylsulfonyl)piperazin-1-yl)methyl)-3-(trifluoromethyl)phenyl)benzamide], the GI50 (TCCS cells) is reported as < 10 nM, the GI50 (KOPM28 cells) is reported as < 10 nM and the GI50 (T315I-KOPM28 cells) is reported as > 100 nM. For the same compound, the GI50 (T315I-TCCS cells) was > 100 nM, the GI50 (T315I-Bcr-Abl (Ba/F3)) was 500 to 5000 nM and the GI50 (Parental (Ba/F3)) was > 5000 nM.

With Cc1c(F)cc(C(=O)Nc2cc(CN3CCN(CCO)CC3)cc(C(C)(C)C#N)c2)cc1C#Cc1cnc2c(Nc3cnn(C)c3)cccn12 [Example 11, N-(3-(2-cyanopropan-2-yl)-5-((4-(2-hydroxyethyl)piperazin-1-yl)methyl)phenyl)-3-fluoro-4-methyl-5-((8-((1-methyl-1H-pyrazol-4-yl)amino)imidazo[1,2-a]pyridin-3-yl)ethynyl)benzamide] the GI50 (TCCS cells) was < 10 nM, the GI50 (KOPM28 cells) was < 10 nM and the GI50 (T315I-KOPM28 cells) was 100 nM. For the same compound, the GI50 (T315I-TCCS cells) was < 10 nM, the GI50 (T315I-Bcr-Abl (Ba/F3)) was < 50 nM and the GI50 (Parental (Ba/F3)) was > 5000 nM.

In the case of Cc1cc(F)c(C(=O)Nc2cc(Oc3ccncc3)cc(C(C)(C)C#N)c2)cc1C#Cc1cnc2c(Nc3cnn(C)c3)cccn12 [Example 26, N-(3-(2-cyanopropan-2-yl)-5-(pyridin-4-yloxy)phenyl)-2-fluoro-4-methyl-5-((8-((1-methyl-1H-pyrazol-4-yl)amino)imidazo[1,2-a]pyridin-3-yl)ethynyl)benzamide], the GI50 (TCCS cells) is reported as < 10 nM, the GI50 (KOPM28 cells) is reported as < 10 nM and the GI50 (T315I-KOPM28 cells) is reported as 100 nM. For the same compound, the GI50 (T315I-TCCS cells) was < 10 nM, the GI50 (T315I-Bcr-Abl (Ba/F3)) was < 50 nM and the GI50 (Parental (Ba/F3)) was > 5000 nM.

Cc1cc(F)c(C(=O)Nc2ccc(CN3CCN(S(C)(=O)=O)CC3)c(C(C)(C)C#N)c2)cc1C#Cc1cnc2c(Nc3cn[nH]c3)cccn12 [Example 94, 5-((8-((1H-pyrazol-4-yl)amino)imidazo[1,2-a]pyridin-3-yl)ethynyl)-N-(3-(2-cyanopropan-2-yl)-4-((4-(methylsulfonyl)piperazin-1-yl)methyl)phenyl)-2-fluoro-4-methylbenzamide] was tested, and the GI50 (TCCS cells) was < 10 nM, the GI50 (KOPM28 cells) was < 10 nM and the GI50 (T315I-KOPM28 cells) was > 100 nM. The GI50 (T315I-TCCS cells) was > 100 nM, the GI50 (T315I-Bcr-Abl (Ba/F3)) was 500 to 5000 nM and the GI50 (Parental (Ba/F3)) was > 5000 nM.

With Cc1cn(-c2cc(NC(=O)c3cc(C#Cc4cnc5c(Nc6cn[nH]c6)cccn45)c(C)cc3Cl)cc(C(C)(C)C#N)c2)cn1 [Example 76, 5-((8-((1H-pyrazol-4-yl)amino)imidazo[1,2-a]pyridin-3-yl)ethynyl)-2-chloro-N-(3-(2-cyanopropan-2-yl)-5-(4-methyl-1H-imidazol-1-yl)phenyl)-4-methylbenzamide] the GI50 (TCCS cells) was < 10 nM, the GI50 (KOPM28 cells) was < 10 nM and the GI50 (T315I-KOPM28 cells) was 100 nM. For the same compound, the GI50 (T315I-TCCS cells) was 100 nM, the GI50 (T315I-Bcr-Abl (Ba/F3)) was < 50 nM and the GI50 (Parental (Ba/F3)) was > 5000 nM.

For Cc1cc(F)c(C(=O)Nc2ccc(CN3CCN(CCO)CC3)c(C(F)(F)F)c2)cc1C#Cc1cnc2c(Nc3cnn(C)c3)cccn12 [Example 56, 2-fluoro-N-(4-((4-(2-hydroxyethyl)piperazin-1-yl)methyl)-3-(trifluoromethyl)phenyl)-4-methyl-5-((8-((1-methyl-1H-pyrazol-4-yl)amino)imidazo[1,2-a]pyridin-3-yl)ethynyl)benzamide], the GI50 (TCCS cells) was < 10 nM, the GI50 (KOPM28 cells) was < 10 nM and the GI50 (T315I-KOPM28 cells) was < 10 nM. The GI50 (T315I-TCCS cells) was < 10 nM, the GI50 (T315I-Bcr-Abl (Ba/F3)) was < 50 nM and the GI50 (Parental (Ba/F3)) was 500 to 5000 nM.

For Cc1cc(F)c(C(=O)Nc2ccc(Oc3ccncc3)c(C(F)(F)F)c2)cc1C#Cc1cnc2c(Nc3cnn(C)c3)cccn12 [Example 65, 2-fluoro-4-methyl-5-((8-((1-methyl-1H-pyrazol-4-yl)amino)imidazo[1,2-a]pyridin-3-yl)ethynyl)-N-(4-(pyridin-4-yloxy)-3-(trifluoromethyl)phenyl)benzamide], the GI50 (TCCS cells) was < 10 nM, the GI50 (KOPM28 cells) was < 10 nM and the GI50 (T315I-KOPM28 cells) was 100 nM. For the same compound, the GI50 (T315I-TCCS cells) was 100 nM, the GI50 (T315I-Bcr-Abl (Ba/F3)) was 50 to 500 nM and the GI50 (Parental (Ba/F3)) was > 5000 nM.

With Cc1cc(F)c(C(=O)Nc2cc(CN3CCN(S(C)(=O)=O)CC3)cc(C(F)(F)F)c2)cc1C#Cc1cnc2c(Nc3cnn(C)c3)cccn12 [Example 70, 2-fluoro-4-methyl-5-((8-((1-methyl-1H-pyrazol-4-yl)amino)imidazo[1,2-a]pyridin-3-yl)ethynyl)-N-(3-((4-(methylsulfonyl)piperazin-1-yl)methyl)-5-(trifluoromethyl)phenyl)benzamide] the GI50 (TCCS cells) was < 10 nM, the GI50 (KOPM28 cells) was < 10 nM and the GI50 (T315I-KOPM28 cells) was > 100 nM. For the same compound, the GI50 (T315I-TCCS cells) was > 100 nM, the GI50 (T315I-Bcr-Abl (Ba/F3)) was 50 to 500 nM and the GI50 (Parental (Ba/F3)) was > 5000 nM.

With Cc1cc(F)c(C(=O)Nc2cc(Cn3ccnc3)cc(C(F)(F)F)c2)cc1C#Cc1cnc2c(Nc3cnn(C)c3)cccn12 [Example 73, N-(3-((1H-imidazol-1-yl)methyl)-5-(trifluoromethyl)phenyl)-2-fluoro-4-methyl-5-((8-((1-methyl-1H-pyrazol-4-yl)amino)imidazo[1,2-a]pyridin-3-yl)ethynyl)benzamide] the GI50 (TCCS cells) was < 10 nM, the GI50 (KOPM28 cells) was < 10 nM and the GI50 (T315I-KOPM28 cells) was 100 nM. For the same compound, the GI50 (T315I-TCCS cells) was 100 nM, the GI50 (T315I-Bcr-Abl (Ba/F3)) was 50 to 500 nM and the GI50 (Parental (Ba/F3)) was > 5000 nM.

With Cc1cn(-c2cc(NC(=O)c3cc(F)c(C)c(C#Cc4cnc5c(Nc6cnn(C)c6)cccn45)c3)cc(C(C)(C)C#N)c2)cn1 [Example 2, N-(3-(2-cyanopropan-2-yl)-5-(4-methyl-1H-imidazol-1-yl)phenyl)-3-fluoro-4-methyl-5-((8-((1-methyl-1H-pyrazol-4-yl)amino)imidazo[1,2-a]pyridin-3-yl)ethynyl)benzamide] the GI50 (TCCS cells) was < 10 nM, the GI50 (KOPM28 cells) was < 10 nM and the GI50 (T315I-KOPM28 cells) was 100 nM. For the same compound, the GI50 (T315I-TCCS cells) was < 10 nM, the GI50 (T315I-Bcr-Abl (Ba/F3)) was < 50 nM and the GI50 (Parental (Ba/F3)) was > 5000 nM.

With Cc1cc(F)c(C(=O)Nc2cc(-c3ccncc3)cc(C(F)(F)F)c2)cc1C#Cc1cnc2c(Nc3cn[nH]c3)cccn12 [Example 97, 5-((8-((1H-pyrazol-4-yl)amino)imidazo[1,2-a]pyridin-3-yl)ethynyl)-2-fluoro-4-methyl-N-(3-(pyridin-4-yl)-5-(trifluoromethyl)phenyl)benzamide] the GI50 (TCCS cells) was < 10 nM, the GI50 (KOPM28 cells) was < 10 nM and the GI50 (T315I-KOPM28 cells) was > 100 nM. The GI50 (T315I-TCCS cells) was 100 nM, the GI50 (T315I-Bcr-Abl (Ba/F3)) was 50 to 500 nM and the GI50 (Parental (Ba/F3)) was > 5000 nM.

In the case of Cc1cc(F)c(C(=O)Nc2cc(CN3CCC(N(C)C)C3)cc(C(F)(F)F)c2)cc1C#Cc1cnc2c(Nc3cn[nH]c3)cccn12 (stereo not drawn) [Example 105, 5-((8-((1H-pyrazol-4-yl)amino)imidazo[1,2-a]pyridin-3-yl)ethynyl)-N-(3-((3-(dimethylamino)pyrrolidin-1-yl)methyl)-5-(trifluoromethyl)phenyl)-2-fluoro-4-methylbenzamide], the GI50 (TCCS cells) is reported as < 10 nM, the GI50 (KOPM28 cells) is reported as < 10 nM and the GI50 (T315I-KOPM28 cells) is reported as 100 nM. The GI50 (T315I-TCCS cells) was < 10 nM, the GI50 (T315I-Bcr-Abl (Ba/F3)) was < 50 nM and the GI50 (Parental (Ba/F3)) was 500 to 5000 nM.
